Assays:
Type in all cases: biochemical
MKK4 = biological target: T1, MKK4 (Homo sapiens, UniProt P45985); test: 33PanQinase kinase assay, MKK4 potency; settings: based on inhibition of enzyme activity at a single concentration or on IC50-values
T1 construct: purchased ProQinase GmbH, Freiburg, Germany (assay service)
T1 sequence (P45985 1-399): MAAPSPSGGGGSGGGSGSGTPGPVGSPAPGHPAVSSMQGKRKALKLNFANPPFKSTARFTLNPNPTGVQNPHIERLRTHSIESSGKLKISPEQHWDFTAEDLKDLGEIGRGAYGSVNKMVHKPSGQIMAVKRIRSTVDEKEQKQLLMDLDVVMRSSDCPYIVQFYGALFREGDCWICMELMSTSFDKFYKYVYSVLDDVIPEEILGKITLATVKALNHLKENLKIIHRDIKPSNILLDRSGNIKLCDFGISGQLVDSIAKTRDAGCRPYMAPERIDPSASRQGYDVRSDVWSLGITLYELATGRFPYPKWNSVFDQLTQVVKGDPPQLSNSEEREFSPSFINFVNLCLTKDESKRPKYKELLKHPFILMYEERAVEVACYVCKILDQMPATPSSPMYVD
Description: (§1) The kinase activities of the compounds of the invention were measured using the 33PanQinase® Assay Service provided by ProQinase GmbH, Freiburg, Germany. Details of the assay conditions are disclosed on the website of ProQinase (https://www.proqinase.com/products-services-biochemical-assay-services/kinase-assays).
(§2) In brief, all kinase assays were performed in 96-well FlashPlates™ from PerkinElmer (Boston, MA, USA) in a 50 μl reaction volume. The reaction cocktail was pipetted in four steps in the following order: • 20 μl of assay buffer (standard buffer) • 5 μl of ATP solution (in H2O) • 5 μl of test compound (in 10% DMSO) • 20 μl enzyme/substrate mix
(§3) The assay for all protein kinases contained 70 mM HEPES-NaOH pH7.5, 3 mM MgCl2, 3 mM MnCl2, 3 μM Na-orthovanadate, 1.2 mM DTT, 50 μg/ml PEG20000, ATP (variable concentrations, corresponding to the apparent ATP-Km of the respective kinase), [γ-^33P]-ATP (approx. […] per well), protein kinase and substrate.
(§4) The reaction cocktails were incubated at 30° C. for 60 minutes. The reaction is stopped with 50 μl of 2% (v/v) H3PO4, plates were aspirated and washed two times with 200 μl 0.9% (w/v) NaCl. Incorporation of ^33Pi was determined with a microplate scintillation counter (Microbeta, Wallac).
(§5) All assays were performed with a BeckmanCoulter/SAGIAN™ Core System.
(§6) In case of single concentration assays, the potency of the test compound is expressed as % residual activity. For determination of IC50-values, serial dilutions in the final concentration range between 100 μM and 3 nM (10 concentrations) were tested. The fitting model for the IC50 determinations was “Sigmoidal response (variable slope)” with parameters “top” fixed at 100% and “bottom” at 0%. The fitting method used was a least-squares fit.

JNK1 = biological target: T2, JNK1 (Homo sapiens, UniProt P45983); test: 33PanQinase kinase assay, selectivity against JNK1; settings: ratio IC50 (JNK1)/IC50 (MKK4)
T2 construct: purchased ProQinase GmbH, Freiburg, Germany (assay service)
Description: as §1, §2, §3, §4, §5, §6
(§7) Selectivity of test compounds against BRaf, JNK1 and MKK7, altogether denominated as off-targets was calculated by the ratio of IC50 (off-target)/IC50 (MKK4) and categorized as follows: […]

BRaf = biological target: T3, BRaf (Homo sapiens, UniProt P15056); test: 33PanQinase kinase assay, selectivity against BRaf; settings: ratio IC50 (BRaf)/IC50 (MKK4)
T3 construct: purchased ProQinase GmbH, Freiburg, Germany (assay service)
Description: as §1, §2, §3, §4, §5, §6, §7

MKK7 = biological target: T4, MKK7 (Homo sapiens, UniProt O14733); test: 33PanQinase kinase assay, selectivity against MKK7; settings: ratio IC50 (MKK7)/IC50 (MKK4)
T4 construct: purchased ProQinase GmbH, Freiburg, Germany (assay service)
T4 sequence (O14733 1-419): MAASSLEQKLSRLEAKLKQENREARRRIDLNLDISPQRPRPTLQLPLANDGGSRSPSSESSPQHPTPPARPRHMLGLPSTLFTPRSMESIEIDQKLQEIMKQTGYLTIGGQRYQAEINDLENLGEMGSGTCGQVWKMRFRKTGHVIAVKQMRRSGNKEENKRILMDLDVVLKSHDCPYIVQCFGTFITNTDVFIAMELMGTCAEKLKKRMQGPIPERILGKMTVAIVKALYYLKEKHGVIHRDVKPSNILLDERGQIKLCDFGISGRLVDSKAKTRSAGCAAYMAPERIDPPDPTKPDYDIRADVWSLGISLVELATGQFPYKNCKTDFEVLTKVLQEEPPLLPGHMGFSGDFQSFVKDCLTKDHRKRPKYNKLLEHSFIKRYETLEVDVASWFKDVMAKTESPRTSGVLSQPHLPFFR
Description: as §1, §2, §3, §4, §5, §6, §7

T2 sequence (P45983 whole entry): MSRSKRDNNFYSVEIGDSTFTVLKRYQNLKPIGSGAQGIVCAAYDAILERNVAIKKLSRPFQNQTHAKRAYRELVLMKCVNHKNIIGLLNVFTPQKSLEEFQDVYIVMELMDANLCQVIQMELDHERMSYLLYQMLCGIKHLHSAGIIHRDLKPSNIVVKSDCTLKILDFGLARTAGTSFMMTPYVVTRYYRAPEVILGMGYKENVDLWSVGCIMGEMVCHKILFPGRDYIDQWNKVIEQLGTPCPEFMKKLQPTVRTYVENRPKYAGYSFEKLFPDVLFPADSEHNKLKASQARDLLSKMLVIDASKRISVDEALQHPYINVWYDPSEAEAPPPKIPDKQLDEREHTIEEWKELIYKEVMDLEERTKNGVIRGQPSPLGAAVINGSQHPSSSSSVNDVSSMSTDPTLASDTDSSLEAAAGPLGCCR
T3 sequence (P15056 whole entry): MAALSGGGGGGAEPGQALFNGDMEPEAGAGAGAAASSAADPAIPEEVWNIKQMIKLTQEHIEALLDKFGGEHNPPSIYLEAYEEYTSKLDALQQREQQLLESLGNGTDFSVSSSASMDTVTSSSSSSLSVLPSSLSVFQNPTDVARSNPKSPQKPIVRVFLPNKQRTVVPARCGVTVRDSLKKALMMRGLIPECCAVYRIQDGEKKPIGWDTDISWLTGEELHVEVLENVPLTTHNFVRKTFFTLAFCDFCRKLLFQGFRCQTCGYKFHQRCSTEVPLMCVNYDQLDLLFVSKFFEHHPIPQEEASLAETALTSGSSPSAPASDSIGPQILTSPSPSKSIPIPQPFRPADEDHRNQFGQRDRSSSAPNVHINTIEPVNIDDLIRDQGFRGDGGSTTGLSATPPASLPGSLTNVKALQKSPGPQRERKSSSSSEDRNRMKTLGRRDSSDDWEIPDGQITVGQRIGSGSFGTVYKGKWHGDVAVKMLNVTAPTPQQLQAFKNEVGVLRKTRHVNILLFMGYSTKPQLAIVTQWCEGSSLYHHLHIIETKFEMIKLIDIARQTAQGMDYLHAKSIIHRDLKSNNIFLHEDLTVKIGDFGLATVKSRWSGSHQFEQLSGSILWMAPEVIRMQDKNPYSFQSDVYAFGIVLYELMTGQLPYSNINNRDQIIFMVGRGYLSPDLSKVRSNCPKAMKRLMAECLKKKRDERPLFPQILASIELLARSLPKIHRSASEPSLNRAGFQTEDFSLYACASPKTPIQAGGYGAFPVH

SMILES	IC50 (MKK4) [nM]	Selectivity BRaf, IC50(off-target)/IC50(MKK4) (BRaf)	Selectivity MKK7, IC50(off-target)/IC50(MKK4) (MKK7)	Selectivity JNK1, IC50(off-target)/IC50(MKK4) (JNK1)
CCCS(=O)(=O)Nc1c(F)ccc(C(=O)c2c[nH]c3ncc(-c4cnc(C)nc4C)cc23)c1F [Example 10]	< 100	+++ (IC50(off-target)/IC50(MKK4) > 100)	+++ (IC50(off-target)/IC50(MKK4) > 100)	+++ (IC50(off-target)/IC50(MKK4) > 100)
CCCS(=O)(=O)Nc1c(F)ccc(C(=O)c2c[nH]c3ncc(-c4cnc(C5CCC5)nc4)cc23)c1F [Example 5]	100 to 1000	+++ (IC50(off-target)/IC50(MKK4) > 100)	+++ (IC50(off-target)/IC50(MKK4) > 100)	+++ (IC50(off-target)/IC50(MKK4) > 100)
CCCS(=O)(=O)Nc1c(F)ccc(C(=O)c2c[nH]c3ncc(-c4cnc(OC)nc4C)cc23)c1F [Example 8]	< 100	++ (100 ≥ IC50(off-target)/IC50(MKK4) > 10)	+++ (IC50(off-target)/IC50(MKK4) > 100)	+ (10 ≥ IC50(off-target)/IC50(MKK4) > 3)
CCCS(=O)(=O)Nc1c(F)ccc(C(=O)c2c[nH]c3ncc(-c4ccc(P(C)(C)=O)cc4)cc23)c1F [Example 4]	< 100	++ (100 ≥ IC50(off-target)/IC50(MKK4) > 10)	+++ (IC50(off-target)/IC50(MKK4) > 100)	++ (100 ≥ IC50(off-target)/IC50(MKK4) > 10)
CCCS(=O)(=O)Nc1c(F)ccc(C(=O)c2c[nH]c3ncc(-c4cncnc4C)cc23)c1F [Example 9]	< 100	+++ (IC50(off-target)/IC50(MKK4) > 100)	+++ (IC50(off-target)/IC50(MKK4) > 100)	++ (100 ≥ IC50(off-target)/IC50(MKK4) > 10)
CCCS(=O)(=O)Nc1c(F)ccc(C(=O)c2c[nH]c3ncc(-c4ccc(C(=O)NOCCO)cc4)cc23)c1F [Example 3, 4-(3-(2,4-difluoro-3-(propylsulfonamido)benzoyl)-1H-pyrrolo[2,3-b]pyridin-5-yl)-N-(2-hydroxyethoxy)benzamide]	< 100	++ (100 ≥ IC50(off-target)/IC50(MKK4) > 10)	+++ (IC50(off-target)/IC50(MKK4) > 100)	++ (100 ≥ IC50(off-target)/IC50(MKK4) > 10)
CCCS(=O)(=O)Nc1c(F)cc(F)c(C(=O)c2c[nH]c3ncc(-c4cnc(C5CC5)nc4)cc23)c1F [Example 7]	< 100	+++ (IC50(off-target)/IC50(MKK4) > 100)	+++ (IC50(off-target)/IC50(MKK4) > 100)	+++ (IC50(off-target)/IC50(MKK4) > 100)
CCCS(=O)(=O)Nc1c(F)ccc(C(=O)c2c[nH]c3ncc(-c4cnc(C5CC5)nc4SC)cc23)c1F [Example 12]	100 to 1000	++ (100 ≥ IC50(off-target)/IC50(MKK4) > 10)	+++ (IC50(off-target)/IC50(MKK4) > 100)	++ (100 ≥ IC50(off-target)/IC50(MKK4) > 10)
CCCS(=O)(=O)Nc1c(F)ccc(C(=O)c2c[nH]c3ncc(-c4cnc(C5CCCC5)nc4)cc23)c1F [Example 6]	1000 to 10000	+++ (IC50(off-target)/IC50(MKK4) > 100)	+++ (IC50(off-target)/IC50(MKK4) > 100)	++ (100 ≥ IC50(off-target)/IC50(MKK4) > 10)
O=C(c1c(F)cc(F)c(NS(=O)(=O)Cc2ccccc2)c1F)c1c[nH]c2ncc(-c3cnc(C4CC4)nc3)cc12 [Example 14]	< 100	++ (100 ≥ IC50(off-target)/IC50(MKK4) > 10)	+++ (IC50(off-target)/IC50(MKK4) > 100)	++ (100 ≥ IC50(off-target)/IC50(MKK4) > 10)

Continued, in another order:

IC50 (MKK4) [nM]	Selectivity BRaf, IC50(off-target)/IC50(MKK4) (BRaf)	Selectivity MKK7, IC50(off-target)/IC50(MKK4) (MKK7)	SMILES	Selectivity JNK1, IC50(off-target)/IC50(MKK4) (JNK1)
> 10000	+ (10 ≥ IC50(off-target)/IC50(MKK4) > 3)	+ (10 ≥ IC50(off-target)/IC50(MKK4) > 3)	CCCS(=O)(=O)Nc1c(F)ccc(C(=O)c2c[nH]c3ncc(-c4cnc(OCC(C)(C)C)nc4)cc23)c1F [Example 13]	+ (10 ≥ IC50(off-target)/IC50(MKK4) > 3)
< 100	+++ (IC50(off-target)/IC50(MKK4) > 100)	+++ (IC50(off-target)/IC50(MKK4) > 100)	CCCS(=O)(=O)Nc1c(F)ccc(C(=O)c2c[nH]c3ncc(-c4cnc(C5CC5)nc4C)cc23)c1F [Example 11]	+++ (IC50(off-target)/IC50(MKK4) > 100)

Reference: patent US12466826B2, “3-benzoyl-1H-pyrrolo[2,3-b]pyridine derivatives as MKK4 inhibitors for treating liver diseases” (HepaRegeniX GmbH, priority 2020, dated 2025)
